Values of other authors in patent publication US12414943B2 (ACASTI PHARMA U.S., INC., priority 2022, dated 2025).

Assays:
[1] = man, oral
[2] = nimodipine-treated SAH patients

COCCOC(=O)C1=C(C)NC(C)=C(C(=O)OC(C)C)C1c1cccc([N+](=O)[O-])c1 (centres unmarked) [Nimodipine, isopropyl2-methoxyethyl 1,4-dihydro-2,6-dimethyl-4-(m-nitrophenyl)-3,5-pyridinedicarboxylate]
half-life equivalent to earlier elimination rates [1]: 1 to 2 h | concentration in the cerebrospinal fluid [2]: ≤ 12.5 ng/mL
